In patent US8377935B2, “Substituted aminopropenyl piperidine or morpholine derivatives as novel inhibitors of histone deacetylase” (Janssen Pharmaceutica N.V., priority 2005, dated 2013):
Read-outs that look alike come from different tables or passages of the source.

Experiments:
[1] = molecular target: histone deacetylase (HeLa nuclear extracts); assay: In vitro assay for inhibition of histone deacetylase (HDAC Fluorescent Activity Assay, Fluor de Lys); format: biochemical; conditions: HeLa nuclear extracts 60 μg/ml, 75 μM Fluor de Lys substrate
Description: The in vitro assay for inhibition of histone deacetylase (see example C.1) measures the inhibition of HDAC enzymatic activity obtained with the compounds of formula (I).
The HDAC Fluorescent Activity Assay/Drug Discovery Kit of Biomol (cat.No: AK-500-0001) was used. The HDAC Fluorescent Activity Assay is based on the Fluor de Lys (Fluorogenic Histone deAcetylase Lysyl) substrate and developer combination. The Fluor de Lys substrate, comprises an acetylated lysine side chain. Deacetylation of the substrate sensitizes the substrate so that, in the second step, treatment with the Fluor de Lys developer produces a fluorophore.
HeLa nuclear extracts (supplier: Biomol) were incubated at 60 μg/ml with 75 μM of substrate. The Fluor de Lys substrate was added in a buffer containing 25 mM Tris, 137 mM. NaCl, 2.7 mM KCl and 1 mM MgCl2.6H2O at pH 7.4. After 30 min, 1 volume of the developer was added. The fluorophore was excited with 355 nm light and the emitted light (450 nm) was be detected on a fluorometric plate reader.
For each experiment, controls (containing HeLa nuclear extract and buffer), a blank incubation (containing buffer but no HeLa nuclear extract) and samples (containing compound dissolved in DMSO and further diluted in buffer and HeLa nuclear extract) were run in parallel. In first instance, compounds were tested at a concentration of 10^−5M. […] All sample were tested 4 times. In each test the blank value was substracted from both the control and the sample values. The control sample represented 100% of substrate deactylation. For each sample the fluorescence was expressed as a percentage of the mean value of the controls. […] Herein the effects of test compounds are expressed as pIC50 (the negative log value of the IC50-value) (see Table F-3).

[2] = system: A2780 ovarian carcinoma cells; assay: Determination of antiproliferative activity on A2780 cells (MTT); format: cell-based; conditions: Homo sapiens, 96 h, four days of incubation, read-out: Cellular activity pIC50 (converted)
Protocol: Cellular activity of the compounds of formula (I) was determined on A2780 tumour cells using a colorimetric assay for cell toxicity or survival (Mosmann Tim, Journal of Immunological Methods 65:55-63, 1983)(see example C.2).
All compounds tested were dissolved in DMSO and further dilutions were made in culture medium. Final DMSO concentrations never exceeded 0.1% (v/v) in cell proliferation assays. Controls contained A2780 cells and DMSO without compound and blanks contained DMSO but no cells. MTT was dissolved at 5 mg/ml in PBS. A glycine buffer comprised of 0.1 M glycine and 0.1 M NaCl buffered to pH 10.5 with NaOH (1 N) was prepared (all reagents were from Merck).
The human A2780 ovarian carcinoma cells (a kind gift from Dr. T. C. Hamilton [Fox Chase Cancer Centre, Pennsylvania, USA]) were cultured in RPMI 1640 medium supplemented with 2 mM L-glutamine, 50 μg/ml gentamicin and 10% fetal calf serum. Cells were routinely kept as monolayer cultures at 37° C. in a humidified 5% CO2 atmosphere. Cells were passaged once a week using a trypsin/EDTA solution at a split ratio of 1:40. All media and supplements were obtained from Life Technologies. Cells were free of mycoplasma contamination as determined using the Gen-Probe Mycoplasma Tissue Culture kit (supplier: BioMerieux).
Cells were seeded in NUNC™ 96-well culture plates (Supplier: Life Technologies) and allowed to adhere to the plastic overnight. Densities used for plating were 1500 cells per well in a total volume of 200 μl medium. After cell adhesion to the plates, medium was changed and drugs and/or solvents were added to a final volume of 200 μl. Following four days of incubation, medium was replaced by 200 μl fresh medium and cell density and viability was assessed using an MTT-based assay. To each well, 25 μl MTT solution was added and the cells were further incubated for 2 hours at 37° C. The medium was then carefully aspirated and the blue MTT-formazan product was solubilized by addition of 25 μl glycine buffer followed by 100 μl of DMSO. […] Within an experiment, the results for each experimental condition are the mean of 3 replicate wells. For initial screening purposes, compounds were tested at a single fixed concentration of 10^−6 M. For active compounds, the experiments were repeated to establish full concentration-response curves. For each experiment, controls (containing no drug) and a blank incubation (containing no cells or drugs) were run in parallel. The blank value was subtracted from all control and sample values. For each sample, the mean value for cell growth (in absorbance units) was expressed as a percentage of the mean value for cell growth of the control. […] Herein the effects of test compounds are expressed as pIC50 (the negative log value of the IC50-value)(see Table F-3).

[3] = Solubility/stability (chemiluminescent nitrogen detector); format: physicochemical; conditions: water
Description: The solubility of a compound measures the ability of a compound to stay in solution. The solubility of a compound at different pH's can be measured with the use of a chemiluminescent nitrogen detector (see example C.3).
The solubility of a compound, at different pH's, can be measured with the use of a chemiluminescent nitrogen detector.

[4] = Metabolic stability with rat hepatocytes cell culture; format: in vitro ADME; conditions: rat hepatocyte cell cultures, 5 μM
Description: Metabolism of drugs means that a lipid-soluble xenobiotic or endobiotic compound is enzymatically transformed into (a) polar, water-soluble, and excretable metabolite(s). The major organ for drug metabolism is the liver. […] However, some metabolites may have enhanced activity or toxic effects. Thus drug metabolism may include both “detoxication” and “toxication” processes. One of the major enzyme systems that determine the organism's capability of dealing with drugs and chemicals is represented by the cytochrome P450 monooxygenases, which are NADPH dependent enzymes. Metabolic stability of compounds can be determined in vitro with the use of subcellular human tissue (see example C.5.a.). Here metabolic stability of the compounds is expressed as % of drug metabolised after 15 minutes incubation of these compounds with microsomes. Quantitation of the compounds was determined by LC-MS analysis. Metabolic stability of compounds can also be determined by calculating the half live of compounds in rat hepatocyte cells (see example C.5.b.). […]
Samples were prepared for LC-MS by addition of two volumes of DMSO. […] Of the resulting supernatant 50 μl was analysed by LC-MS. […]
Total injection volume of samples was 50 μL. […] The mass spectrometer was operated in positive ion mode in SIM adjusted to the mass of […] with a scan width of 1 Da for quantification purposes. […]

[5] = not given; remark: listed apart in the source

Enzyme activity pIC50 [1] | IC50 [2] | melting point | SMILES | also measured
8.3 | 50.1 nM | 155 °C | CC(/C=C/c1ccccc1)NCC1CCN(c2ncc(C(=O)NO)cn2)CC1 (stereo not shown) [Compound 3] | solubility [3]: > 1000 µg/mL
8.0 | 158 nM |  | O=C(NO)c1cnc(N2CCC(NC(/C=C/c3ccccc3)CO)CC2)nc1 (stereo not shown) [Compound 2] | solubility [3]: > 500 µg/mL
8.7 | 158 nM | 100 °C | CC(=O)N(CC1CCN(c2ncc(C(=O)NO)cn2)CC1)C(C)/C=C/c1ccccc1 (stereo not shown) [Compound 4] | solubility [3]: > 100 µg/mL

Continued, molecule first:

SMILES | Enzyme activity pIC50 [1] | IC50 [2] | melting point | also measured
CC(/C=C/c1ccccc1)N(CC1CCN(c2ncc(C(=O)NO)cn2)CC1)S(C)(=O)=O (stereo not shown) [Compound 8] | 9.5 | 200 nM | 110 °C | 
Nc1ccccc1NC(=O)c1cnc(N2CCC(CNC(/C=C/c3ccccc3)CO)CC2)nc1 (stereo not shown) [Compound 5] | 6.0 | 3160 nM | 178 °C | 
O=C(NO)c1cnc(N2CCC(CNC(/C=C/c3ccccc3)CO)CC2)nc1 (stereo not shown) (hydrate or solvate) [Compound 1] |  |  | 196 °C | 
O=C(NO)c1cnc(N2CCN(S(=O)(=O)c3ccc4ccccc4c3)CC2)nc1 [Compound R306465, reference compound] |  |  |  | in vitro half-live [4]: 8 min
COc1cc(N)c(Cl)cc1C(=O)NC1CCN(CCCOc2ccc(F)cc2)CC1OC (stereo not shown) [Cisapride] |  |  |  | % metabolism ([5]; human, 15 min, 5 μM): 45%
O=C(NO)c1cnc(N2CCOC(CNC(/C=C/c3ccccc3)CO)C2)nc1 (stereo not shown) [Compound 6] | 8.1 | 79.4 nM | 111 °C | 
CCCO [propanol] |  |  |  | % metabolism ([5]; 15 min incubation with active microsomes, compound 5 μM): 25%
Nc1ccccc1NC(=O)c1cnc(N2CCOC(CNC(/C=C/c3ccccc3)CO)C2)nc1 (stereo not shown) [Compound 7] | 6.0 | 1260 nM | 95 °C | 
O=C(NO)c1cnc(N2CCC(NC(/C=C/c3ccccc3)CO)CC2)nc1 (stereo not shown) (hydrate or solvate) [Compound 2] |  |  | 109 °C | 
